Patent publication US8097640B2, “Prophylactic or therapeutic agent for diabetic maculopathy” (Sanwa Kagaku Kenkyusho Co., Ltd., priority 2004, dated 2012)
Where “and” joins values, the source holds several entries; their conditions need not be identical. Equal entries are not always repeated.

Legend:
[1] = tested on: nuclei in the inner retinal layer (ganglion cell layer) of diabetic rats; test: Rat Test 1: loss of nuclei from ganglion cells after ischemia/reperfusion in STZ diabetic rats; format: in vivo, Sprague Dawley rats; conditions: 32 mg/kg oral once a day, 4 rats
Protocol: (§1) Diabetes mellitus was induced in male Sprague Dawley rats (8-week-old) weighing about 250 g by injecting streptozotocin (STZ manufactured by Sigma) intravenously into their tail at the dose of 60 mg/kg. One week after the treatment with STZ, serum glucose was measured, and rats with at least 300 mg/dl glucose were then used in the experiment as diabetic rats. The set groups were the following 3 groups, and after 2 weeks after the treatment with STZ, 5% gum arabic solution or SNK-860 solution was orally administered once a day. • (1) Normal control group (5 rats): Given 5% gum arabic solution in a ratio of 5 ml/kg. • (2) Diabetic control group (7 rats): Given 5% gum arabic solution in a ratio of 5 ml/kg. • (3) Diabetic group given 32 mg/kg SNK-860 (4 rats): Given a suspension of SNK-860 (32 mg/5 ml) in 5% gum arabic solution in a ratio of 5 ml/kg.
(§2) After administration for 2 weeks, intraocular ischemia was caused by the treatment described below. After the treatment was finished, the animals were maintained as usual for 2 days, and thereafter, the eyeballs were excised and histologically evaluated. Administration of the pharmacological agent was also conducted for a period (2 days) of reperfusion after ischemic treatment. […]
(§3) In each of the resulting retinal images, the thickness of the visual cell layer was measured. […]

[2] = tested on: edema in a retinal visual cell layer of diabetic rats; test: Rat Test 1: edema in retinal visual cell layer after intraocular ischemia/reperfusion in STZ diabetic rats; format: in vivo, Sprague Dawley rats; conditions: 32 mg/kg oral once a day, 2 weeks plus 2 days reperfusion
Protocol: as §1, §2, §3

[3] = tested on: patients with diabetic macular edema; test: Clinical Results: macula lutea thickness (OCT), corrected visual acuity and safety in patients with diabetic macular edema; format: in vivo, humans
Protocol: Among patients with diabetic maculopathy, 10 patients with diabetic macular edema having a retinal thickening or a hard exudates in a posterior pole of the retina were subjects. SNK-860 was orally administered in a dose of 30 mg (2 tablets each containing 15 mg SNK-860) once a day before breakfast for 8 weeks. During this test period, simultaneous use of eparlestat, intravitreal injection and sub-Tenon injection of an adrenal cortical hormone, and photocoagulation and vitrectomy were prohibited. Basic therapy of diabetes mellitus was carried out so as to give good blood glucose control throughout the test period.
Evaluation was carried out in terms of the thickness of the macular central fovea (in the diameter range of 1 mm from the center of macula lutea) and the thickness at the center of the central fovea measured by optical coherence tomography (OCT, Carl Zeiss), as well as corrected visual acuity (Log MAR).
Log MAR (Log Minimum Angle of Resolution) is one kind of logarithmic visual acuity, which is visual acuity expressed in logarithmic minimum angle of resolution. Decimal visual acuity 1.0 used frequently in Japan is 0.0 in terms of Log MAR, and decimal visual acuity 0.1 is 1.0 in Log MAR. A log MAR visual acuity of 0.1 to 0.5 corresponds to a decimal visual acuity of 0.8 to 0.32.

[4] = tested on: edema in a retinal visual cell layer of diabetic rats; test: Rat Test 2: edema in retinal visual cell layer after intraocular ischemia/reperfusion in STZ diabetic rats; format: in vivo
Protocol: The test was carried out in accordance with Efficacy Pharmacological Test Example 1. The set groups were the following 4 groups, and from 2 weeks after the treatment with STZ, 5% gum arabic solution or SNK-860 solution was orally administered once a day. • (1) Normal control group (10 rats): Given 5% gum arabic solution in a ratio of 5 ml/kg. • (2) Diabetic control group (9 rats): Given 5% gum arabic solution in a ratio of 5 ml/kg. • (3) Diabetic group given 2 mg/kg SNK-860 (10 rats): Given a suspension of SNK-860 (2 mg/5 ml) in 5% gum arabic solution in a ratio of 5 ml/kg. • (4) Diabetic group given 32 mg/kg SNK-860 (9 rats): Given a suspension of SNK-860 (32 mg/5 ml) in 5% gum arabic solution in a ratio of 5 ml/kg. Retinal ischemia produced by increasing the intraocular pressure was in accordance with Efficacy Pharmaceutical Test Example 1. Histological evaluation was also in accordance with Efficacy Pharmaceutical Test Example 1.

[5] = tested on: edema in the macular central fovea of diabetic monkeys; test: Monkey Test: thickness and volume of macular central fovea (OCT) after ischemia/reperfusion in STZ diabetic monkeys; format: in vivo, Macaca fascicularis
Protocol: Diabetes mellitus was induced in male monkeys (Macaca fascicularis) (3-year-old) weighing about 2.1 to 2.4 kg by intravenously injecting STZ into their foreleg vein at the dose of 80 mg/kg. Two days after the treatment with STZ, blood glucose level was measured, and monkeys with at least 200 mg/dl glucose were then used in the experiment as diabetic monkeys. Insulin was administered subcutaneously once or twice per day into monkeys showing a blood glucose level of 300 mg/dl. The set groups were the following 3 groups, and from 2 weeks after the treatment with STZ, 5% gum arabic solution or SNK-860 solution was orally administered once a day. • (1) Normal control group (4 monkeys): Given 5% gum arabic solution in a ratio of 5 ml/kg. • (2) Diabetic control group (6 monkeys): Given 5% gum arabic solution in a ratio of 5 ml/kg. • (3) Diabetic group given 32 mg/kg SNK-860 (4 monkeys): Given a suspension of SNK-860 (32 mg/5 ml) in 5% gum arabic solution in a ratio of 5 ml/kg.
After administration for 2 weeks, intraocular ischemic treatment was carried out as described below, and after the treatment was finished, the animals were maintained as usual for 7 days. Before the ischemic treatment and 7 days after treatment, the thickness and volume of the macular central fovea (in the diameter range of 1 mm from the center of the macula lutea) were measured by an OCT scanner (Stratus OCT, Carl Zeiss). Administration of the pharmacological agent was also conducted for the period (7 days) of reperfusion after the ischemic treatment.
Retinal ischemia produced by increasing intraocular pressure was in accordance with Efficacy Pharmaceutical Test Example 1. However, the size of the needle used was 25 G×½ (Terumo). After a mydriatic (Mydrin P manufactured by Santen Pharmaceutical) was dropped onto the right eye, the monkey was anesthetized by intramuscularly administering ketaral (Sankyo Life Tech). Subsequently, a local anesthetic (Benoxyl eye drop 0.4%) was dropped onto the eye, and the monkey was prevented from blinking with an eyelid speculum. Anesthesia with ketaral was additionally carried out when necessary.
The thickness and volume of the macular central fovea were measured in the following manner. After a mydriatic (Mydrin P) was dropped onto the right eye of the monkey to dilate the pupil of the eye sufficiently, the monkey was anesthetized by intramuscularly administering Ketaral. Thereafter, the monkey was allowed to sit on a monkey chair and the head was fixed. […] On the basis of the resulting cross-sectional macular image, the thickness and volume of the macular central fovea were analyzed.

[6] = 30 mg oral once a day for 8 weeks, 12 eyes, mean ± standard deviation
[7] = 30 mg oral once a day for 8 weeks, out of 12 eyes
[8] = baseline before administration, 12 eyes in 10 cases, mean ± standard deviation
[9] = 32 mg/kg oral once a day for 2 weeks, before ischemia
[10] = 32 mg/kg oral once a day, 7 days after ischemia

SMILES: NC(=O)[C@@H]1C[C@]2(NC(=O)NC2=O)c2cc(F)ccc2O1 [SNK-860, (2S,4S)-6-Fluoro-2′,5′-dioxospiro[chroman-4,4′-imidazolidine]-2-carboxamide]
- loss of nuclei from ganglion cells [1]: loss of nuclei was not observed in all 4 rats
- edema / thickness of the visual cell layer (ischemic/re-perfused eye vs untreated eye) [2]: no edema was observed
- Corrected visual acuity, Week 8 [3, 6]: 0.24 Log MAR and 0.24 ± 0.20 Log MAR
- Macula lutea thickness, Center of central fovea, Week 8 [3, 6]: 298.7 μm and 298.7 ± 90.6 μm
- Macula lutea thickness, Central fovea (diameter: 1 mm), Week 8 [3, 6]: 300.4 μm and 300.4 ± 74.4 μm
- Corrected visual acuity (eye number), 1-stage deterioration [3, 7]: 1 eyes
- Corrected visual acuity (eye number), 1-stage improvement [3, 7]: 2 eyes
- Corrected visual acuity (eye number), 2-stage improvement [3, 7]: 3 eyes
- Corrected visual acuity (eye number), Unchanged [3, 7]: 6 eyes
- side effects (safety) ([3]; 30 mg oral once a day for 8 weeks, patients): no particularly problematic side effects were recognized
- Macula lutea thickness, Center of central fovea, When initiated [3, 8]: 323.1 μm and 323.1 ± 111.4 μm
- Macula lutea thickness, Central fovea (diameter: 1 mm), When initiated [3, 8]: 324.3 μm and 324.3 ± 87.7 μm
- Corrected visual acuity, When initiated ([3]; baseline before administration, 12 eyes, mean ± standard deviation): 0.30 Log MAR and 0.30 ± 0.22 Log MAR
- inhibitory action on edema in visual cell layer ([4]; 2 mg/kg oral once a day): no inhibitory action on edema was observed
- inhibitory action on edema in visual cell layer ([4]; 32 mg/kg oral once a day): an evident inhibitory action on edema was observed
- formation of edema in macular central fovea ([5]; 32 mg/kg oral once a day): formation of edema or its change was not observed
- Average macula lutea thickness, Before ischemia [5, 9]: 157 ± 6 μm
- Average macula lutea volume, Before ischemia [5, 9]: 0.123 ± 0.005 mm^3
- Average macula lutea thickness, 7 days after ischemia [5, 10]: 158 ± 2 μm
- Average macula lutea volume, 7 days after ischemia [5, 10]: 0.124 ± 0.001 mm^3
